# Measurements taken from patent US9302999B2, “Substituted triazoles as herbicides” (E. I. DU PONT DE NEMOURS AND COMPANY, priority 2012, dated 2016).
# Columns and labels:
# Format in all cases: in vivo
# [1] = tested on: canarygrass (Phalaris minor); assay: Test C postemergence: canarygrass
# Summary of the method: (§1)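 Greenhouse pot test; foliar postemergence treatment at 1- to 4-leaf stage. Rated visually at 13 to 15 days on a 0–100 control scale relative to untreated plants.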
# [2] = tested on: windgrass (Apera spica-venti); assay: Test C postemergence: windgrass
# Summary of the method: as §1
# [3] = tested on: common (oilseed) sunflower (Helianthus annuus); assay: Test C pre-/postemergence: sunflower; settings: Preemergence
# Description: Seeds of plant species selected from blackgrass (Alopecurus myosuroides), bromegrass, downy (downy bromegrass, Bromus tectorum), foxtail, green (green foxtail, Setaria viridis), ryegrass, Italian (Italian ryegrass, Lolium multiflorum), winter wheat (Triticum aestivum), wild oat (Avena fatua), galium (catchweed bedstraw, Galium aparine), bermudagrass (Cynodon dactylon), surinam grass (Brachiaria decumbens), cocklebur (common cocklebur, Xanthium strumarium), corn (Zea mays), large crabgrass (Digitaria sanguinalis), woolly cupgrass (Eriochloa villosa), foxtail, giant (giant foxtail, Setaria faberii), goosegrass (Eleusine indica), johnsongrass (Sorghum halepense), kochia (Kochia scoparia), lambsquarters (Chenopodium album), morningglory (Ipomoea coccinea), nightshade (eastern black nightshade, Solanum ptycanthum), nutsedge, yellow (yellow nutsedge, Cyperus esculentus), pigweed (Amaranthus retroflexus), ragweed (common ragweed, Ambrosia elation), soybean (Glycine max), common (oilseed) sunflower (Helianthus annuus), Russian thistle (Salsola kali) and velvetleaf (Abutilon theophrasti) were planted into a blend of loam soil and sand and treated preemergence with test chemicals formulated in a non-phytotoxic solvent mixture which included a surfactant.
# At the same time, plants selected from these crop and weed species and also barley (winter barley, Hordeum vulgare), canarygrass (Phalaris minor), chickweed (common chickweed, Stellaria media) windgrass (Apera spica-venti) and deadnettle (henbit deadnettle, Lamium amplexicaule) were planted in pots containing Redi-Earth® planting medium (Scotts Company, 14111 Scottslawn Road, Marysville, Ohio 43041) comprising spaghnum peat moss, vermiculite, wetting agent and starter nutrients and treated with postemergence applications of test chemicals formulated in the same manner. Plants ranged in height from 2 to 18 cm (1- to 4-leaf stage) for postemergence treatments.
# Treated plants and controls were maintained in a greenhouse for 13 to 15 days, after which time all species were compared to controls and visually evaluated. Plant response ratings, summarized in Table C, are based on a scale of 0 to 100 where 0 is no effect and 100 is complete control. A dash (-) response means no test result.
# [4] = tested on: sedge, umbrella (small-flower umbrella sedge, Cyperus difformis); assay: Test C flooded paddy test: sedge, umbrella; settings: Cyperus difformis, scale 0 to 100 (0 no effect, 100 complete control), read-out: Plant response rating, Sedge, Umbrella
# Summary of the method: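 Plants were grown to the 2-leaf stage, pots flooded to 3 cm above soil, and test compounds applied directly to the paddy water, with that depth held throughout. After 13 to 15 days in a greenhouse, injury was visually rated against controls on a 0 (no effect) to 100 (complete control) scale.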
# [5] = tested on: buckwheat, wild (wild buckwheat, Polygonum convolvulus); assay: Test D pre-/postemergence: buckwheat, wild
# Summary of the method: (§2)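 Visual control ratings (0–100) after 14–21 days, controlled environment. Preemergence on silt loam; postemergence on 2–18 cm plants.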
# [6] = tested on: canarygrass (Phalaris minor); assay: Test D pre-/postemergence: canarygrass
# Summary of the method: as §2
# [7] = tested on: windgrass (Apera spica-venti); assay: Test D pre-/postemergence: windgrass
# Summary of the method: as §2
# [8] = tested on: chickweed (common chickweed, Stellaria media); assay: Test D pre-/postemergence: chickweed
# Summary of the method: as §2
# [9] = tested on: oat, wild (wild oat, Avena fatua); assay: Test D pre-/postemergence: oat, wild
# Summary of the method: as §2
# [10] = 31 g ai/ha, scale 0 to 100 (0 no effect, 100 complete control)
# [11] = 62 g ai/ha, scale 0 to 100 (0 no effect, 100 complete control)
# [12] = 125 g ai/ha, scale 0 to 100, 0 no effect, 100 complete control
# [13] = 31 g ai/ha, scale of 0 to 100, 0 is no effect, 100 is complete control
# [14] = 250 g ai/ha, scale 0 to 100, 0 no effect, 100 complete control
# [15] = 62 g ai/ha, scale of 0 to 100, 0 is no effect, 100 is complete control
# [16] = Postemergence, 31 g ai/ha, scale 0 to 100 (0 no effect, 100 complete control)
# [17] = Postemergence, 62 g ai/ha, scale 0 to 100 (0 no effect, 100 complete control)
# [18] = Postemergence, 125 g ai/ha, scale 0 to 100, 0 no effect, 100 complete control
# [19] = Postemergence, 8 g ai/ha, scale 0 to 100
# [20] = Postemergence, 16 g ai/ha, scale 0 to 100
# [21] = Postemergence, 31 g ai/ha, scale 0 to 100
# [22] = Preemergence, 16 g ai/ha, scale 0 to 100 (0 no effect, 100 complete control)
# [23] = Preemergence, 31 g ai/ha, scale 0 to 100 (0 no effect, 100 complete control)
# [24] = Preemergence, 62 g ai/ha, scale 0 to 100
# [25] = Preemergence, 125 g ai/ha, scale 0 to 100
compound,measurement,setting,value
Fc1ccc(-n2nc(Cc3ccnc(C(F)(F)F)c3)c(OCC(F)(F)F)n2)cc1 [Compound 142],"Plant response rating, Canarygrass",[1]; [10],45
same,"Plant response rating, Canarygrass",[1]; [11],80
same,"Plant response rating, Canarygrass",[1]; [12],85
same,"Plant response rating, Canarygrass","[1]; 250 g ai/ha, scale 0 to 100",100
same,"Plant response rating, Windgrass",[2]; [10],80
same,"Plant response rating, Windgrass",[2]; [11],80
same,"Plant response rating, Windgrass",[2]; [12],85
same,"Plant response rating, Windgrass","[2]; 250 g ai/ha, scale 0 to 100",95
same,"Plant response rating, Sunflower",[3]; [13],15
same,"Plant response rating, Sunflower",[3]; [12],15
same,"Plant response rating, Sunflower",[3]; [14],25
"Cc1nn(-c2ccc(C(F)(F)F)cc2)nc1Cc1ccnc(C(F)(F)F)c1 [Compound 47, 4-[[5-methyl-2-[4-(trifluoromethyl)phenyl]-2H-1,2,3-triazol-4-yl]methyl]-2-(trifluoromethyl)pyridine]","Plant response rating, Canarygrass",[1]; [10],60
same,"Plant response rating, Canarygrass",[1]; [11],75
same,"Plant response rating, Canarygrass",[1]; [12],85
same,"Plant response rating, Canarygrass","[1]; 250 g ai/ha, scale 0 to 100",90
same,pest or weed control at 62 g/ha,"[4]; Flood (flooded paddy test), 62 g ai/ha, visual rating after 13 to 15 days",85%
same,pest or weed control at 125 g/ha,"[4]; Flood (flooded paddy test), 125 g ai/ha, visual rating after 13 to 15 days",90%
same,pest or weed control at 250 g/ha,"[4]; Flood (flooded paddy test), 250 g ai/ha, visual rating after 13 to 15 days",90%
same,pest or weed control at 31 g/ha,"[4]; Flood, 31 g ai/ha",75%
same,"Plant response rating, Windgrass",[2]; [10],60
same,"Plant response rating, Windgrass",[2]; [11],80
same,"Plant response rating, Windgrass",[2]; [12],85
same,"Plant response rating, Windgrass","[2]; 250 g ai/ha, scale 0 to 100",100
same,"Plant response rating, Sunflower",[3]; [13],0
same,"Plant response rating, Sunflower",[3]; [15],0
same,"Plant response rating, Sunflower",[3]; [12],0
same,"Plant response rating, Sunflower",[3]; [14],10
Cc1nn(-c2ccc(F)c(F)c2)nc1Oc1ccnc(C(F)(F)F)c1 [Compound 145],"Plant response rating: Buckwheat, Wild",[5]; [16],35
same,"Plant response rating: Buckwheat, Wild",[5]; [17],45
same,"Plant response rating: Buckwheat, Wild",[5]; [18],85
same,"Plant response rating, Buckwheat, Wild",[5]; [19],15
same,"Plant response rating, Buckwheat, Wild",[5]; [20],30
same,Plant response rating: Canarygrass,[6]; [16],35
same,Plant response rating: Canarygrass,[6]; [17],35
same,Plant response rating: Canarygrass,[6]; [18],60
same,"Plant response rating, Canarygrass",[6]; [19],20
same,"Plant response rating, Canarygrass",[6]; [20],30
same,Plant response rating: Windgrass,[7]; [17],60
same,Plant response rating: Windgrass,[7]; [18],80
same,"Plant response rating, Windgrass",[7]; [19],5
same,"Plant response rating, Windgrass",[7]; [20],10
same,"Plant response rating, Windgrass",[7]; [21],35
same,"Plant response rating, Canarygrass",[1]; [10],15
same,"Plant response rating, Canarygrass",[1]; [11],40
same,"Plant response rating, Canarygrass",[1]; [12],50
same,"Plant response rating, Canarygrass","[1]; 250 g ai/ha, scale 0 to 100",90
same,Plant response rating: Chickweed,[8]; [16],60
same,Plant response rating: Chickweed,[8]; [17],80
same,Plant response rating: Chickweed,[8]; [18],90
same,"Plant response rating, Chickweed",[8]; [19],40
same,"Plant response rating, Chickweed",[8]; [20],75
same,"Plant response rating, Windgrass",[2]; [10],50
same,"Plant response rating, Windgrass",[2]; [11],70
same,"Plant response rating, Windgrass",[2]; [12],90
same,"Plant response rating, Windgrass","[2]; 250 g ai/ha, scale 0 to 100",90
same,"Plant response rating, Sunflower",[3]; [13],0
same,"Plant response rating, Sunflower",[3]; [15],5
same,"Plant response rating, Sunflower",[3]; [12],20
same,"Plant response rating, Sunflower",[3]; [14],25
same,"Plant response rating: Oat, Wild",[9]; [16],20
same,"Plant response rating: Oat, Wild",[9]; [17],30
same,"Plant response rating: Oat, Wild",[9]; [18],35
same,"Plant response rating, Oat, Wild",[9]; [19],10
same,"Plant response rating, Oat, Wild",[9]; [20],10
Cc1nn(-c2ccc(F)c(C(F)(F)F)c2)nc1Oc1ccnc(C(F)(F)F)c1 [Compound 147],"Plant response rating: Buckwheat, Wild",[5]; [16],50
same,"Plant response rating: Buckwheat, Wild",[5]; [17],65
same,"Plant response rating: Buckwheat, Wild",[5]; [18],70
same,"Plant response rating, Buckwheat, Wild",[5]; [20],45
same,"Plant response rating, Buckwheat, Wild",[5]; [22],15
same,"Plant response rating, Buckwheat, Wild",[5]; [23],10
same,"Plant response rating, Buckwheat, Wild",[5]; [24],30
same,"Plant response rating, Buckwheat, Wild",[5]; [25],100
same,Plant response rating: Canarygrass,[6]; [16],35
same,Plant response rating: Canarygrass,[6]; [17],55
same,Plant response rating: Canarygrass,[6]; [18],80
same,"Plant response rating, Canarygrass",[6]; [20],15
same,"Plant response rating, Canarygrass",[6]; [22],5
same,"Plant response rating, Canarygrass",[6]; [23],35
same,"Plant response rating, Canarygrass",[6]; [24],100
same,"Plant response rating, Canarygrass",[6]; [25],100
same,Plant response rating: Windgrass,[7]; [17],50
same,Plant response rating: Windgrass,[7]; [18],75
same,"Plant response rating, Windgrass",[7]; [20],15
same,"Plant response rating, Windgrass",[7]; [21],25
same,"Plant response rating, Windgrass",[7]; [22],0
same,"Plant response rating, Windgrass",[7]; [23],60
same,"Plant response rating, Windgrass",[7]; [24],100
same,"Plant response rating, Windgrass",[7]; [25],100
same,Plant response rating: Chickweed,[8]; [16],70
same,Plant response rating: Chickweed,[8]; [17],80
same,Plant response rating: Chickweed,[8]; [18],80
same,"Plant response rating, Chickweed",[8]; [20],60
same,"Plant response rating, Chickweed",[8]; [22],35
same,"Plant response rating, Chickweed",[8]; [23],85
same,"Plant response rating, Chickweed",[8]; [24],70
same,"Plant response rating, Chickweed",[8]; [25],100
same,"Plant response rating, Sunflower",[3]; [13],15
same,"Plant response rating, Sunflower",[3]; [15],15
same,"Plant response rating, Sunflower",[3]; [12],15
same,"Plant response rating, Sunflower",[3]; [14],25
same,"Plant response rating: Oat, Wild",[9]; [16],15
same,"Plant response rating: Oat, Wild",[9]; [17],30
same,"Plant response rating: Oat, Wild",[9]; [18],35
same,"Plant response rating, Oat, Wild",[9]; [20],10
same,"Plant response rating, Oat, Wild",[9]; [22],5
same,"Plant response rating, Oat, Wild",[9]; [23],15
same,"Plant response rating, Oat, Wild",[9]; [24],35
same,"Plant response rating, Oat, Wild",[9]; [25],70
